These are literature values, as cited in patent publication US20050065131A1, “2-alkylidene-19-nor-vitamin D derivatives for enhancement of peak bone mass in adolescence” (Pfizer Inc, priority 2003, published 2005).

In the data set the test system is Bone Calcium Mobilization. Particulars: at both dose levels (130 and 260 pmol/day), 7 days.

Regarding `C=C1[C@H](O)CC(=C/C=C2\CCC[C@]3(C)[C@@H]([C@H](C)CCCC(C)(C)O)CC[C@@H]23)C[C@H]1O` [2-Methylene-19-Nor-1,25-(OH)2D3, 1α,25-dihydroxy-2-methylene-19-nor-vitamin D3], the “bone calcium mobilization, result in words” value is recorded as “extremely strong”.
